According to ChEMBL document CHEMBL3879911, “Heteroaryl compounds useful as inhibitors of E1 activating enzymes” (2008):
pIC50: −log10 of the molar value.

Target: T1, NEDD8 activating enzyme (Homo sapiens, UniProt Q8TBC4)
T1 sequence (Q8TBC4 whole entry): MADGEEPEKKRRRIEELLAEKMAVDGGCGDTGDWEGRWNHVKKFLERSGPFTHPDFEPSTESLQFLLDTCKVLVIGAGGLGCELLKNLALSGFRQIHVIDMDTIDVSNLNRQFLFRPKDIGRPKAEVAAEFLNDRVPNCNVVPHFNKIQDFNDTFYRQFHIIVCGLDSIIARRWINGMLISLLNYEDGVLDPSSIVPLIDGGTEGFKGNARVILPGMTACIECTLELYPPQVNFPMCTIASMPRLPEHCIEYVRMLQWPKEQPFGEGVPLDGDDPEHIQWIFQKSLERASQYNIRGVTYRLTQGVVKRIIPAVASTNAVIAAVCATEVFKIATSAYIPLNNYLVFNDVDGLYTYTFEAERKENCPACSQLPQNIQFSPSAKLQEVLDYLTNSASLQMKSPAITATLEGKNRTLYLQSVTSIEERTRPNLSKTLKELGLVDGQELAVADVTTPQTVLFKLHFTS
T1 sequence (Q13564 whole entry): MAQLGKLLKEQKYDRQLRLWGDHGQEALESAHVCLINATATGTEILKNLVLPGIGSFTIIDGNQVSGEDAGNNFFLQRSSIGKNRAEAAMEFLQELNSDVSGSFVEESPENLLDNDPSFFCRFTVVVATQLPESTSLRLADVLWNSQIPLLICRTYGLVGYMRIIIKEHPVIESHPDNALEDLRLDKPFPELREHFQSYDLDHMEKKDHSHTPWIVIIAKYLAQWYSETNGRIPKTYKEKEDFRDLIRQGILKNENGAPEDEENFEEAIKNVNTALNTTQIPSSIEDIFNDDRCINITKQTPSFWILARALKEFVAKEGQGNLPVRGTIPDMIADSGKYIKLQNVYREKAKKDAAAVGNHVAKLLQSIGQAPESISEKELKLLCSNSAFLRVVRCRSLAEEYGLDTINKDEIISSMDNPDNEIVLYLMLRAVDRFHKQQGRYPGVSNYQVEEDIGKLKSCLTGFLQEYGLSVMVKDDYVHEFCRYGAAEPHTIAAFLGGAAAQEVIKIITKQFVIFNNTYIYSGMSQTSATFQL
Experiment: Inhibition of recombinant human NAEalpha/N-terminal His-tagged NAEbeta expressed in baculovirus infected insect Sf9 cells using N-terminal FLAG tagged Nedd8 as substrate incubated for 105 mins in presence of N-terminal GST-tagged Ubc12 by FRET assay

Compound	pIC50
NS(=O)(=O)OC[C@@H]1C[C@@H](Nc2ncnc3[nH]c(-c4cccc5c4CCCC5)nc23)C[C@@H]1O	≥ 6.30
NS(=O)(=O)OC[C@@H]1C[C@@H](Oc2cc(NC3CCCC3)ncn2)C[C@@H]1O	5.00 to 6.30
NS(=O)(=O)OC[C@@H]1C[C@@H](Nc2ncnc3[nH]c(Cc4ccccc4)nc23)C[C@@H]1O	≥ 6.30
NS(=O)(=O)OC[C@@H]1C[C@@H](Nc2ncnc3oc(-c4ccccc4)nc23)C[C@@H]1O	≥ 6.30
CO[C@H]1c2ccccc2C[C@H]1Oc1cc(O[C@@H]2C[C@@H](COS(N)(=O)=O)[C@@H](O)C2)ncn1	5.00 to 6.30
Cc1cccc(S(=O)(=O)c2nc3c(O[C@@H]4C[C@@H](COS(N)(=O)=O)[C@@H](O)C4)ncnc3[nH]2)c1	≥ 6.30
NS(=O)(=O)OC[C@H]1C[C@@H](Nc2nc(N[C@H]3CCc4ccccc43)ncc2F)[C@H](O)[C@@H]1O	5.00 to 6.30
NS(=O)(=O)OC[C@@H]1C[C@@H](Oc2cc(OCc3cccc4ccccc34)ncn2)C[C@@H]1O	5.00 to 6.30
NS(=O)(=O)OC[C@@H]1C[C@@H](Oc2ccncn2)C[C@@H]1O	< 5.00
CN(c1cc(N[C@H]2CCc3ccccc32)ncn1)[C@@H]1C[C@H](COS(N)(=O)=O)[C@@H](O)[C@H]1O	≥ 6.30
Cn1c(-c2ccccc2)nc2c(N[C@@H]3C[C@@H](COS(N)(=O)=O)[C@@H](O)C3)ncnc21	≥ 6.30
NS(=O)(=O)OC[C@@H]1C[C@@H](Nc2ncnc3nc(-c4ccc(OCc5ccccc5)cc4)[nH]c23)C[C@@H]1O	≥ 6.30
NS(=O)(=O)OC[C@@H]1C[C@@H](Nc2ncnc3[nH]c(-c4cccc(-c5ccccc5)c4)nc23)C[C@@H]1O	≥ 6.30
Cc1cccc(Sc2nc3ncnc(O[C@@H]4C[C@@H](COS(N)(=O)=O)[C@@H](O)C4)c3[nH]2)c1	≥ 6.30
CO[C@H]1Cc2ccccc2[C@H]1Nc1ncnc(O[C@@H]2C[C@@H](COS(N)(=O)=O)[C@@H](O)C2)c1F	≥ 6.30
CN(c1ncnc2c1nc(-c1ccccc1)n2C)[C@@H]1C[C@@H](COS(N)(=O)=O)[C@@H](O)C1	5.00 to 6.30
CN(C)c1ccccc1-c1nc2c(N[C@@H]3C[C@@H](COS(N)(=O)=O)[C@@H](O)C3)ncnc2[nH]1	≥ 6.30
NS(=O)(=O)OC[C@@H]1C[C@@H](Oc2cc(Cc3ccccc3)ncn2)C[C@@H]1O	5.00 to 6.30
NS(=O)(=O)OC[C@@H]1C[C@@H](Oc2ncnc3nc(-c4ccc(N5CCCC5)c5ccccc45)[nH]c23)C[C@@H]1O	≥ 6.30

Compound	pIC50
OC[C@@H]1C[C@@H](Nc2ncnc3[nH]c(-c4cccc5c4CCCC5)nc23)C[C@@H]1O	5.00 to 6.30
NS(=O)(=O)OC[C@@H]1C[C@@H](Oc2ncnc3nc(-c4cncc5ccccc45)[nH]c23)C[C@@H]1O	≥ 6.30
CC1(C)C[C@H](Nc2ncnc(N[C@@H]3C[C@@H](COS(N)(=O)=O)[C@@H](O)C3)n2)c2ccccc21	≥ 6.30
OC[C@@H]1C[C@@H](Nc2ncnc3[nH]c(-c4cccc5c4OCCO5)nc23)C[C@@H]1O	5.00 to 6.30
NS(=O)(=O)OC[C@@H]1C[C@@H](Oc2ncnc3nc(-c4c[nH]c5ccccc45)[nH]c23)C[C@@H]1O	≥ 6.30
COc1cccc(-c2nc3c(N[C@@H]4C[C@@H](COS(N)(=O)=O)[C@@H](O)C4)ncnc3[nH]2)c1	≥ 6.30
NS(=O)(=O)OC[C@@H]1C[C@@H](Oc2ncnc3[nH]c(-c4cccc5ccccc45)nc23)C[C@@H]1O	≥ 6.30
COc1cccc(OC)c1-c1nc2c(N[C@@H]3C[C@@H](COS(N)(=O)=O)[C@@H](O)C3)ncnc2[nH]1	≥ 6.30
NS(=O)(=O)OC[C@@H]1C[C@@H](Oc2ncnc3nc(-c4cnn(Cc5ccccc5)c4)[nH]c23)C[C@@H]1O	≥ 6.30
NS(=O)(=O)OC[C@@H]1C[C@@H](Oc2ccnc(N[C@H]3CCc4ccccc43)c2)C[C@@H]1O	5.00 to 6.30
CC1(C)C[C@H](Nc2cc(O[C@@H]3C[C@@H](COS(N)(=O)=O)[C@@H](O)C3)ncn2)c2ccccc21	≥ 6.30
NS(=O)(=O)OC[C@@H]1C[C@@H](O)[C@H](Nc2cc(N[C@H]3CCc4ccccc43)ncn2)C1	< 5.00
NS(=O)(=O)OC[C@@H]1C[C@@H](Nc2ncnc3[nH]c(-c4ccc(Cl)cc4)nc23)C[C@@H]1O	≥ 6.30
CO[C@H]1Cc2ccccc2[C@H]1Nc1cc(O[C@@H]2C[C@@H](COS(N)(=O)=O)[C@@H](O)C2)ncn1	≥ 6.30
CC(C)(C)c1nc2c(N[C@@H]3C[C@@H](COS(N)(=O)=O)[C@@H](O)C3)ncnc2[nH]1	≥ 6.30
NS(=O)(=O)OC[C@H]1C[C@@H](Nc2cc(C#Cc3ccccc3)ncn2)[C@H](O)[C@@H]1O	≥ 6.30
Cc1ccccc1-c1nc2c(N[C@@H]3C[C@@H](COS(N)(=O)=O)[C@@H](O)C3)ncnc2[nH]1	≥ 6.30
NS(=O)(=O)OC[C@@H]1C[C@@H](Nc2cc(CCc3ccccc3)ncn2)C[C@@H]1O	5.00 to 6.30
NS(=O)(=O)OC[C@@H]1C[C@@H](Oc2cc(OCc3ccc(Cl)cc3)ncn2)C[C@@H]1O	< 5.00

Now from value to compound:

pIC50	Compound
≥ 6.30	CC1(C)Cc2cccc(-c3nc4c(N[C@@H]5C[C@@H](COS(N)(=O)=O)[C@@H](O)C5)ncnc4[nH]3)c2O1
5.00 to 6.30	CO[C@@H]1c2ccccc2C[C@@H]1Oc1cc(O[C@@H]2C[C@@H](COS(N)(=O)=O)[C@@H](O)C2)ncn1
5.00 to 6.30	NS(=O)(=O)OC[C@@H]1C[C@@H](Oc2cc(-c3ccccc3)ncn2)C[C@@H]1O
≥ 6.30	NS(=O)(=O)OC[C@H]1C[C@@H](Nc2cc(Nc3cccc4c3CCCC4)ncn2)[C@H](O)[C@@H]1O
≥ 6.30	NS(=O)(=O)OC[C@@H]1C[C@@H](Nc2ncnc3[nH]c(-c4ccccc4C(F)(F)F)nc23)C[C@@H]1O
5.00 to 6.30	CO[C@H]1Cc2ccccc2[C@H]1Oc1cc(O[C@@H]2C[C@@H](COS(N)(=O)=O)[C@@H](O)C2)ncn1
≥ 6.30	NS(=O)(=O)OC[C@@H]1C[C@@H](Nc2ncnc3nc(-c4cccc5cccnc45)[nH]c23)C[C@@H]1O
≥ 6.30	CN(C)c1ccc(-c2nc3ncnc(O[C@@H]4C[C@@H](COS(N)(=O)=O)[C@@H](O)C4)c3[nH]2)c2ccccc12
≥ 6.30	NS(=O)(=O)OC[C@@H]1C[C@@H](Oc2ccnc3[nH]c(-c4cccc5ccccc45)nc23)C[C@@H]1O
≥ 6.30	CO[C@H]1Cc2ccccc2[C@H]1Nc1cc(O[C@@H]2C[C@@H](CNS(N)(=O)=O)[C@@H](O)C2)ncn1
5.00 to 6.30	NS(=O)(=O)OC[C@H]1C[C@@H](Nc2cc(N[C@H]3CCC[C@@H]3OCc3ccccc3)ncn2)[C@H](O)[C@@H]1O
5.00 to 6.30	CO[C@@H]1Cc2ccccc2[C@@H]1Oc1cc(O[C@@H]2C[C@@H](COS(N)(=O)=O)[C@@H](O)C2)ncn1
5.00 to 6.30	NS(=O)(=O)OC[C@H]1C[C@@H](Nc2cc(CCc3ccccc3)ncn2)[C@H](O)[C@@H]1O
≥ 6.30	NS(=O)(=O)OC[C@@H]1C[C@@H](Nc2ncnc3[nH]c(C4CCCCC4)nc23)C[C@@H]1O
≥ 6.30	CO[C@H]1Cc2ccccc2[C@H]1Nc1ncnc(N[C@@H]2C[C@@H](COS(N)(=O)=O)[C@@H](O)C2)n1
< 5.00	NS(=O)(=O)OC[C@H]1C[C@@H](Nc2cc(N[C@@H]3CCC[C@H]3OCc3ccccc3)ncn2)[C@H](O)[C@@H]1O
≥ 6.30	NS(=O)(=O)OC[C@@H]1C[C@@H](Nc2ncnc3nc(-c4cccc5c4OCC5)[nH]c23)C[C@@H]1O
5.00 to 6.30	NS(=O)(=O)OC[C@@H]1C[C@@H](Oc2ncnc3c2ncn3Cc2ccccc2)C[C@@H]1O
5.00 to 6.30	NS(=O)(=O)OC[C@@H]1C[C@@H](Oc2cc(N3Cc4ccccc4C3)ncn2)C[C@@H]1O
